The results in this text go back to PubChem BioAssay AID844 (SRMLSC, 2007).

Active and inactive are the calls of the source. How the calls were made is not given here.

The test deals with MRP1 cells, doxorubicin viability shift, 10 uM compound. Description: viability protection against doxorubicin, MRP-1 line – cell-based, doxorubicin EC50 shift, dose response (AID 844). The conditions noted are these: for EC50: measured here: doxorubicin EC50 with compound.

As usually defined, the EC50 is the concentration needed to bring the measured effect to its halfway point. On to `O=C(Nc1ccn(Cc2ccccc2F)n1)c1ccc(COc2ccc(Cl)cc2Cl)o1`, for which the fold increase in Dox EC50 is 0.95 (inactive) and the EC50 was found to be 5.15 µM.
For `CN1/C(=C\C(=O)c2oc3ccccc3c2N)C(C)(C)c2ccccc21`, the fold increase in Dox EC50 is 0.7 (inactive) and the EC50 stood at 3.77 µM.
For `N#Cc1cc2c(nc1SCc1ccc(Cl)cc1)CCCC2`, the fold increase in Dox EC50 is 1.07 (inactive) and the EC50 is 5.75 µM.
Consider `COc1ccc(C2C(C(=O)Nc3cccc(C)n3)CCC(=O)N2c2ccc(OC)cc2)cc1` (stereo not drawn), for which the fold increase in Dox EC50 is 0.64 (inactive) and the concentration for a half-maximal effect (EC50) came out at 3.44 µM.
With `CNC[C@H](O)c1ccc(O)c(O)c1`, the fold increase in Dox EC50 was 0.69 (inactive) and the EC50 came out at 3.75 µM.
As for `COC(=O)c1cn(NC(=O)c2cccnc2)c(=O)c2ccccc12`, the fold increase in Dox EC50 is 0.52 (inactive) and the EC50 was 2.79 µM.
Turning to `Clc1ccc(Cc2nnc(-c3ccccc3Br)o2)cc1`, the fold increase in Dox EC50 is 1.14 (inactive) and the EC50 worked out at 6.15 µM.
For `Cc1ccc(C(=O)NC(C)c2ccc(F)cc2)cc1` (stereo not drawn), the fold increase in Dox EC50 was 0.68 (inactive) and the EC50 was found to be 3.68 µM.
On to `O=C(Nc1nnc(N2CCCCCC2)s1)c1cc(-c2ccc(Br)cc2)on1`, for which the fold increase in Dox EC50 is 0.91 (inactive) and the half-maximal effective concentration (EC50) stood at 4.91 µM.
With `COC(=O)C1C(=O)c2c([nH]c(C(=O)OC3CCCCC3)c2C)CC1C` (stereo not drawn), the fold increase in Dox EC50 was 0.69 (inactive) and the EC50 came out at 3.74 µM.
In the case of `O=C1c2ccccc2-c2nc3ccccc3n21`, the fold increase in Dox EC50 is 1.09 (inactive) and the EC50 was determined as 5.87 µM.
Regarding `O=C(NCCc1ccccc1)C(=O)c1c(-c2ccccc2)cc2ccccn12`, the fold increase in Dox EC50 was 1.08 (inactive) and the EC50 was determined as 5.84 µM.
Regarding `CCOC(=O)c1ccc(N2C(=O)c3n[nH]c(C)c3C2c2ccc(OC)cc2OC)cc1` (stereo not drawn), the fold increase in Dox EC50 is 0.28 (inactive) and the EC50 was determined as 1.51 µM.
The matching figures for `Cc1ccc(C(=O)Nc2nnc(C)s2)o1`: 1.32 (inactive) and 7.14 µM.
Consider `O=C(NNC(=O)c1cccnc1)Nc1cccc2ccccc12`, for which the fold increase in Dox EC50 was 0.66 (inactive) and the EC50 was 3.57 µM.
`O=C(/C=C/NNC(=O)c1ccccc1)c1ccc(Br)cc1`: the fold increase in Dox EC50 was 0.53 (inactive) and the EC50 was 2.86 µM.
Consider `O=[N+]([O-])c1ccc(N/N=C/c2ccccc2)c(F)c1`, for which the fold increase in Dox EC50 is 0.64 (inactive) and the 50% effective concentration (EC50) turned out to be 3.44 µM.
`CCCCCCC(=O)Nc1ccc(C(=O)N/N=C/c2cccnc2)cc1`: the fold increase in Dox EC50 is 0.13 (inactive) and the EC50 turned out to be 0.694 µM.
The matching figures for `Cc1ccc(CC2SC(=Nc3ccccc3)N(c3ccccc3)C2=O)cc1` (stereo not drawn): 1.69 and 9.1 µM.
Take `COc1ccc(-n2ncc3c(N4CCCc5ccccc54)ncnc32)cc1`: the fold increase in Dox EC50 was 0.67 (inactive) and the EC50 stood at 3.62 µM.
With `Cc1ccc(-c2cc(-c3ccccc3)no2)c(O)c1`, the fold increase in Dox EC50 is 0.59 (inactive) and the EC50 turned out to be 3.2 µM.
`COc1ccc(OCc2nc3ccc(S(=O)(=O)Nc4ccccc4Cl)cc3[nH]2)cc1`: the fold increase in Dox EC50 is 0.96 (inactive) and the EC50 was 5.16 µM.
For the molecule `CC(NC(=O)CN1CCN(Cc2ccc(Cl)cc2)C1=O)c1ccc2c(c1)OCCO2` (stereo not drawn), the fold increase in Dox EC50 is 0.87 (inactive) and the EC50 was determined as 4.67 µM.
`O=C(NC(=S)Nc1ccccc1N1CCOCC1)c1ccc(-c2cccc(Cl)c2)o1`: the fold increase in Dox EC50 is 0.41 (inactive) and the EC50 was determined as 2.22 µM.
As for `COc1ccc(OC)c(-c2csc(NC(=O)C3c4ccccc4Oc4ccccc43)n2)c1`, the fold increase in Dox EC50 was 0.96 (inactive) and the EC50 was found to be 5.16 µM.
The matching figures for `N#Cc1c(-c2ccccc2)nc(SCC(=O)N(c2ccccc2)c2ccccc2)[nH]c1=O`: 1.08 (inactive) and 5.86 µM.
On to `CCc1ccc(/C(C)=N/Nc2cc(Cl)nc(C)n2)cc1`, for which the fold increase in Dox EC50 was 0.69 (inactive) and the EC50 came out at 3.75 µM.
Consider `Cc1ccc2nc(NC(=O)CCNS(=O)(=O)c3cccs3)sc2c1`, for which the fold increase in Dox EC50 is 0.56 (inactive) and the EC50 worked out at 3 µM.
Take `COc1ccc([N+](=O)[O-])cc1NC(=O)COC(=O)/C=C/c1ccco1`: the fold increase in Dox EC50 was 0.99 (inactive) and the EC50 was 5.32 µM.
As to `O=C1NC(=Nc2ccc(Cl)cc2)SC1Cc1cccc(Cl)c1Cl` (stereo not drawn), the fold increase in Dox EC50 was 1.19 (inactive) and the EC50 amounted to 6.41 µM.
For `CCCCCC(=O)Nc1ccc(S(=O)(=O)Nc2ccc(Cl)nn2)cc1`, the fold increase in Dox EC50 was 1.12 (inactive) and the EC50 stood at 6.04 µM.
As for `O=C(NCc1ccc(F)cc1)C(=O)NCC1OCCN1C(=O)c1cccs1` (stereo not drawn), the fold increase in Dox EC50 was 1.24 (inactive) and the 50% effective concentration (EC50) turned out to be 6.68 µM.
Take `COc1ccc(CN=C2NC(=O)CC(C(=O)Nc3ccc(F)cc3)S2)cc1` (stereo not drawn): the fold increase in Dox EC50 was 1.01 (inactive) and the EC50 was 5.47 µM.
On the same counts, the results for `COc1ccc(NC(=O)CC2C(=O)N(c3ccc(Cl)cc3)C(=S)N2NC(=O)c2cccc(F)c2)cc1` (stereo not drawn) are 0.67 (inactive) and 3.59 µM.
As to `CC(C)(C)NC(=O)c1cccc(NC(=O)Cc2ccc(Br)cc2)c1`, the fold increase in Dox EC50 was 0.97 (inactive) and the EC50 is 5.23 µM.
As to `C=CCN(C(=O)Nc1ccc(Cl)cc1)C1CC(=O)N(c2ccc(OC)cc2)C1=O` (stereo not drawn), the fold increase in Dox EC50 was 0.9 (inactive) and the EC50 came out at 4.85 µM.
On the same counts, the results for `O=C(CSCc1ccc(Cl)cc1)NCC1CCCO1` (stereo not drawn) are 1.1 (inactive) and 5.96 µM.
On to `CCOP(=O)(OCC)C(NC(=O)Nc1ccc(Cl)cc1)C(=O)N(CC)CC` (stereo not drawn), for which the fold increase in Dox EC50 is 1.33 (inactive) and the EC50 was 7.16 µM.
On the same counts, the results for `CSC1=NCCN1C(=O)Cc1ccc(Cl)cc1` are 1.04 (inactive) and 5.6 µM.
With `CCN(CC(=O)NC(C)C)C(=O)c1ccc(Cl)cc1`, the fold increase in Dox EC50 is 0.45 (inactive) and the EC50 is 2.41 µM.
Take `Cc1cc(=O)oc2c1ccc1oc(/C(=N/O)c3ccccc3)c(C)c12`: the fold increase in Dox EC50 is 1.3 (inactive) and the EC50 was 7.02 µM.
On the same counts, the results for `Cc1cc(C)c(NC(=O)c2sc3nc4c(cc3c2N)C(=O)CC(C)(C)C4)c(C)c1` are 0.7 (inactive) and 3.76 µM.
The matching figures for `COc1ccc(C(=O)NCc2ccc(-c3nc4ccccc4s3)cc2)cc1`: 1.57 and 8.47 µM.
Consider `Cc1onc(-c2c(F)cccc2Cl)c1C(=O)Nc1sc2c(c1C#N)CCC(C(C)(C)C)C2` (stereo not drawn), for which the fold increase in Dox EC50 was 0.48 (inactive) and the 50% effective concentration (EC50) stood at 2.61 µM.
Take `Cc1ccc(C2=CC(C)(c3ccc(C)cc3)Nc3nc(C(F)(F)F)nn32)cc1` (stereo not drawn): the fold increase in Dox EC50 is 0.94 (inactive) and the EC50 amounted to 5.1 µM.
Take `Cc1cc(C(=O)OCC(=O)Nc2ccc(F)c(F)c2)c(C)o1`: the fold increase in Dox EC50 is 1.76 and the half-maximal effective concentration (EC50) was found to be 9.53 µM.
Take `CCC(=O)c1ccc(N2CCOCC2)c(F)c1`: the fold increase in Dox EC50 is 1.32 (inactive) and the EC50 was 7.12 µM.
As for `O=C(COc1ccc(Br)cc1)c1ccc2c(c1)CCCC2`, the fold increase in Dox EC50 was 1.17 (inactive) and the EC50 worked out at 6.29 µM.
For the molecule `Cc1noc(/C=C/N(C)C)c1S(=O)(=O)N1CCCC(C(=O)NCc2ccccc2Cl)C1` (stereo not drawn), the fold increase in Dox EC50 is 0.82 (inactive) and the EC50 was found to be 4.42 µM.
As to `Cc1cccc(CC2S/C(=N/c3ccccn3)NC2=O)c1` (stereo not drawn), the fold increase in Dox EC50 was 1.15 (inactive) and the EC50 was 6.22 µM.
In the case of `Cc1cc2n(n1)C(c1ccccc1)CC(c1ccc(Br)cc1)=N2` (stereo not drawn), the fold increase in Dox EC50 was 0.76 (inactive) and the EC50 came to 4.12 µM.
The matching figures for `CCCOc1ccc(C(=O)Nc2ccc(N3CCN(C(C)=O)CC3)cc2)cc1`: 1.06 (inactive) and 5.75 µM.
As for `CC(=O)Nc1ccc2[nH]c(C)c(CC=C(Cl)Cl)c(=O)c2c1`, the fold increase in Dox EC50 is 0.72 (inactive) and the EC50 was 3.87 µM.
On to `C=CCc1c(C)nc(-c2ccccc2)nc1N/N=C/c1ccccc1`, for which the fold increase in Dox EC50 was 0.87 (inactive) and the EC50 was found to be 4.7 µM.
`Cc1ccc(OCc2nnc(SC3CCc4ccccc4C3=O)n2C)cc1` (stereo not drawn): the fold increase in Dox EC50 was 1.22 (inactive) and the concentration giving a half-maximal response (EC50) was 6.56 µM.
Consider `Oc1c(C(c2ccccc2)N2CCc3ccccc3C2)sc2ncnn12` (stereo not drawn), for which the fold increase in Dox EC50 is 0.45 (inactive) and the EC50 is 2.42 µM.
As to `CC(C)c1ccc(C(=O)CSc2ncn[nH]2)cc1`, the fold increase in Dox EC50 is 0.96 (inactive) and the concentration giving a half-maximal response (EC50) was 5.17 µM.
On the same counts, the results for `Cc1nc(=O)c(-c2ccccc2)c(C)n1-c1ccc(S(N)(=O)=O)cc1` are 1.53 and 8.25 µM.
Take `CCOc1ccccc1NC(=O)c1cccc(NC(=O)CC(c2ccccc2)c2ccccc2)c1`: the fold increase in Dox EC50 is 1.2 (inactive) and the EC50 amounted to 6.45 µM.
For `CCC(=O)N1CCN=C1SCc1ccc(F)cc1`, the fold increase in Dox EC50 is 0.75 (inactive) and the EC50 was found to be 4.07 µM.
The matching figures for `Cn1c(=O)c2c(nc(CN3CCOCC3)n2CCc2ccccc2)n(C)c1=O`: 0.31 (inactive) and 1.68 µM.
As for `CC(C(=O)N1c2ccccc2CCc2ccccc21)n1nnc(-c2ccc(N(C)C)cc2)n1` (stereo not drawn), the fold increase in Dox EC50 is 1.06 (inactive) and the EC50 amounted to 5.7 µM.
Consider `Oc1c(C(c2cccs2)N2CCN(c3ccccc3)CC2)sc2ncnn12` (stereo not drawn), for which the fold increase in Dox EC50 is 0.93 (inactive) and the EC50 was 5.02 µM.
`CCC(C)c1ccc(O)c(NC(=O)c2ncn[nH]2)c1` (stereo not drawn): the fold increase in Dox EC50 was 0.97 (inactive) and the concentration for a half-maximal effect (EC50) was 5.25 µM.
